These results are taken from US10710986B2, “PD-1/PD-L1 inhibitors” (Gilead Sciences, Inc., priority 2018, dated 2020).

As usually defined, the IC50 is the concentration that gives 50% inhibition.

In the test the target is PD-1/PD-L1 (Homo sapiens (Human), UniProt Q9NZQ7). Briefly: PD-1/PD-L1 biochemical protein-protein interaction assay (ALPHA). The conditions noted are these: 0.3 nM His tagged PD-L1, 2.5 nM biotinylated Fc-PD-1, 60 minutes at 25° C., read-out: IC50 PD-L1-PD1.
Sequence of PD-1/PD-L1 (Q9NZQ7 19-238): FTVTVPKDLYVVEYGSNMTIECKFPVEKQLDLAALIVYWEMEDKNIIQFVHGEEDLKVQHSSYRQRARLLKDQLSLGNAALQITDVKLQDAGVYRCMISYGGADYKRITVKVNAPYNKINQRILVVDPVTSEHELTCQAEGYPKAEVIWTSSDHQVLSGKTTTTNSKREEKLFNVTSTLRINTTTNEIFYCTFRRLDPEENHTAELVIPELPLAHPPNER
With `COc1nc(-c2cccc(-c3cccc(-c4cnc(CN[C@@H]5C[C@@H]5C(F)F)c(OC)n4)c3Cl)c2Cl)cnc1CNC[C@@H]1CCC(=O)N1` [compound 180], the IC50 was determined as 1.03 nM. On to `COc1nc(-c2cccc(-c3cccc(-c4cnc(CNC(C)(C)C(F)F)c(OC)n4)c3Cl)c2Cl)cnc1CNC[C@@H]1CCC(=O)N1` [compound 181], for which the IC50 came to 1.51 nM. As to `COc1nc(-c2cccc(-c3cccc(-c4cnc(CNC5CC5)c(OC)n4)c3Cl)c2Cl)cnc1CNC[C@@H]1CCC(=O)N1` [compound 184], the IC50 stood at 0.763 nM. Take `COCC1(NCc2ncc(-c3cccc(-c4cccc(-c5cnc(CNC[C@@H]6CCC(=O)N6)c(OC)n5)c4Cl)c3Cl)nc2OC)CCC1` [compound 185]: the IC50 was 0.48 nM. The value for `COc1nc(-c2cccc(-c3cccc(-c4cnc(CNC[C@H]5CCC[C@@H]5O)c(OC)n4)c3Cl)c2Cl)cnc1CNC[C@@H]1CCC(=O)N1` [compound 186] was 0.1 nM; that for `COc1nc(-c2cccc(-c3cccc(-c4cnc(CN5C[C@H]6C[C@H]6[C@H]5CO)c(OC)n4)c3Cl)c2Cl)cnc1CNC[C@@H]1CCC(=O)N1` [compound 187] was 0.28 nM. The value for `COC(=O)NC1CCN(Cc2ncc(-c3cccc(-c4cccc(-c5cnc(CNC[C@@H]6CCC(=O)N6)c(OC)n5)c4Cl)c3Cl)nc2OC)C1` (stereo partly drawn) [compound 188] was 0.12 nM; that for `COc1nc(-c2cccc(-c3cccc(-c4cnc(CNCC5CN(C(C)=O)C5)c(OC)n4)c3Cl)c2Cl)cnc1CNCC1CN(C(C)=O)C1` [compound 189] was 0.094 nM.

Regarding `COc1nc(-c2cccc(-c3cccc(-c4cnc(CNC5CC6(C5)CN(C(C)=O)C6)c(OC)n4)c3Cl)c2Cl)cnc1CNC1CC2(C1)CN(C(C)=O)C2` (stereo not drawn) [compound 190], the IC50 turned out to be 0.2 nM.

Regarding `COc1nc(-c2cccc(-c3cccc(-c4cnc(CNC5CN(C(C)=O)C5)c(OC)n4)c3Cl)c2Cl)cnc1CNC[C@@H]1CCC(=O)N1` [compound 191], the IC50 was 0.143 nM. On to `COc1nc(-c2cccc(-c3cccc(-c4cnc(CN5CC6(C5)CN(C(C)=O)C6)c(OC)n4)c3Cl)c2Cl)cnc1CNC[C@H]1CCC(=O)N1` [compound 192], for which the IC50 is 0.156 nM.

On to `COc1nc(-c2cccc(-c3cccc(-c4cnc(CN5CCC6(CNC(=O)C6)C5)c(OC)n4)c3Cl)c2Cl)cnc1CNC[C@H]1CCC(=O)N1` (stereo partly drawn) [compound 193], for which the IC50 came to 0.133 nM.

With `COc1nc(-c2cccc(-c3cccc(-c4cnc(CNC5CCN(C(C)=O)C5)c(OC)n4)c3Cl)c2Cl)cnc1CNC[C@H]1CCC(=O)N1` (stereo partly drawn) [compound 194], the IC50 is 0.149 nM. With `COc1nc(-c2cccc(-c3cccc(-c4cnc(CN[C@H]5CC[C@H](NC(C)=O)CC5)c(OC)n4)c3Cl)c2Cl)cnc1CNC[C@H]1CCC(=O)N1` [compound 195], the IC50 is 0.064 nM. Consider `COc1nc(-c2cccc(-c3cccc(-c4cnc(CNC[C@H]5CCC(=O)N5)c(OC)n4)c3Cl)c2Cl)cnc1CNCC1CNC(=O)C1` (stereo partly drawn) [compound 196], for which the IC50 came out at 0.17 nM.

Regarding `COc1nc(-c2cccc(-c3cccc(-c4cnc(CN5CCC6(CCC(=O)N6)C5)c(OC)n4)c3Cl)c2Cl)cnc1CNC[C@H]1CCC(=O)N1` (stereo partly drawn) [compound 197], the IC50 amounted to 0.23 nM.

`COc1nc(-c2cccc(-c3cccc(-c4cnc(CN5CC[C@@H](NC(C)=O)C5)c(OC)n4)c3Cl)c2Cl)cnc1CNC[C@H]1CCC(=O)N1` [compound 198]: the IC50 was 0.121 nM.

With `COc1nc(-c2cccc(-c3cccc(-c4cnc(CN[C@@H]5CNC(=O)C5)c(OC)n4)c3Cl)c2Cl)cnc1CNC[C@H]1CCC(=O)N1` [compound 199], the IC50 worked out at 0.126 nM.

`COc1nc(-c2cccc(-c3cccc(-c4cnc(CN[C@H]5CNC(=O)C5)c(OC)n4)c3Cl)c2Cl)cnc1CNC[C@H]1CCC(=O)N1` [compound 200]: the IC50 was 0.132 nM. On to `COc1nc(-c2cccc(-c3cccc(-c4cnc(CNC[C@H]5CCC(=O)N5)c(OC)n4)c3Cl)c2Cl)cnc1CNCCc1ncc[nH]1` [compound 201], for which the IC50 amounted to 0.28 nM. As to `COc1nc(-c2cccc(-c3cccc(-c4cnc(CNC5CCC6(CNC(=O)C6)C5)c(OC)n4)c3Cl)c2Cl)cnc1CNC[C@H]1CCC(=O)N1` (stereo partly drawn) [compound 202], the IC50 turned out to be 0.144 nM.
